Values of other authors in patent US7495029B2, “Prodrugs of (2R)-2-propyloctanoic acid for the treatment of stroke” (Merck & Co., Inc, priority 2004, dated 2009).

Assays:
[1] = system: gerbils subjected to a transient global ischemia event; conditions: Jalil et al, Brain Research 2002
mice = conditions: Tunctan et al, Pharmacological Res 2003
lipid peroxidation = conditions: in vitro; Kogure et al, Life Sciences 2002
[2] = system: vascular endothelial cell; conditions: in vitro; Kogure et al, Life Sciences 2002
rat stroke models = conditions: Kogure et al, Life Sciences 2002

| Compound | neuroprotection against hippocampal damage [1] | endotoxin-induced mortality (mice) | lipid peroxidation (lipid peroxidation) | vascular endothelial cell damage [2] | development of cerebral edema, cerebral infarction, neurological symptoms and delayed neuronal death (rat stroke models) |
| --- | --- | --- | --- | --- | --- |
| CC1(C)OC(=O)C(c2cccc(F)c2)=C1c1ccc(S(C)(=O)=O)cc1 [DFU] | neuroprotective against hippocampal damage | dose dependently reduce endotoxin-induced mortality |  |  |  |
| Edaravone |  |  | inhibit lipid peroxidation | inhibit | inhibit the development of cerebral edema, cerebral infarction, neurological symptoms and delayed neuronal death |
